# Test results reported in patent US20150190369A1, “QUERCETIN-3-GLUCOSIDE AND USES THEREOF” (priority 2012, published 2015).
# Entries after “also recorded” stand apart in the source; their conditions may differ.
# Tests used:
# [1] = test system: LDLR; assay: Semi-quantitative immunoblotting for LDLR protein in Huh7 cell lysates; format: cell-based, human
# Procedure: (§1) At passage, Huh7 cells were routinely seeded at sub-confluence (˜10^6 cells/10-cm dish) in Dulbecco's modified Eagle's medium (DMEM) containing 10% fetal bovine serum (FBS) or LPDS (for experiments) and 50 μg/ml gentamycin. They were incubated overnight at 37° C., in a humidified 5% CO2-95% air atmosphere. Cells were treated or not with Q3G at defined concentrations and for defined lengths of time. Media were collected and centrifuged at 200 g for 5 min to sediment suspended cells; supernatants were collected and supplemented with 0.33 volumes of a 3×-concentrated PIC. Cell monolayers were rinsed with ice-cold phosphate-buffered saline (PBS); they were overlaid with […] the RIPA lysis buffer (50 mM Tris-HCl, pH 8, 150 mM NaCl, 1% NP-40, 0.5% Na-deoxycholate and 0.1% SDS) supplemented with 1× PIC. After 20 min in an ice bath, the lysates were centrifuged at 14,000 g and 4° C. for 20 min, and supernatants were collected. Conditioned media and lysates were stored at −20° C. until analysis.
# (§2) Cell lysates were fractionated by SDS-PAGE and electrophoretically transferred onto a polyvinylidene fluoride membrane. The membrane was incubated with a goat antihuman LDLR, rabbit anti-PCSK9, or rabbit anti-SREBP-2 polyclonal antibody at 1:1000, 1:1500, and 1:200 dilutions, respectively, and then with a HRP-conjugated heterospecific secondary antibody against the primary Igs at a 1:2000 dilution. It was probed for HRP reaction using the Western Lightning Chemiluminescence Reagent Plus a chemiluminescence-based revelation kit. The signal was captured on X-ray film and immunoreactive bands analyzed by densitometry on a Syngene's ChemiGenius^2XE Bio Imaging System (Cambridge, Mass.) within the dynamic range of the instrument. The membrane was stripped and reprobed with the anti-β-actin monoclonal primary antibody at 1:20,000 dilution and HRP-conjugated rabbit anti-mouse IgG secondary antibody at a 1:5000 dilution. The densitometric values of β-actin bands were using for normalization of experimental samples.
# Huh7 cells, hepatocyte derived cellular carcinoma cells, were incubated for 24 h in medium containing 10% lipoprotein-depleted serum (LPDS) and 0 to 10 μM Q3G. The level of LDLR mRNA was measured by quantitative real-time RT-PCR; that of the LDLR protein by semi-quantitative immunoblotting. Exposure to Q3G increased the intracellular content of LDLR mRNA in a concentration-dependent manner; the increase reached a 2× maximum at 2 μM (P<0.01, relative to no Q3G) (FIG. 3A). The content of the corresponding protein followed a similar pattern, but reached a 4× maximum at 4 μM (P<0.005) (FIG. 3B).
# The kinetics of cellular accumulation of LDLR and PCSK9 at 2 μM Q3G was also examined: PCSK9 accumulation in the cells began after a 3-h lag; that of LDLR after 6-h lag (FIG. 6).
# Statins induce expression of LDLR and PCSK9. […] We examined whether, at a 5 μM concentration of Q3G, simvastatin at 0.2 and 1 μM could further up regulate LDLR expression in Huh7 cells; and, inversely, whether the flavonol can reduce statin-stimulated PCSK9 secretion secreted by Huh7 cells.
# [2] = test system: PCSK9 mRNA; assay: Quantitative RT-PCR for PCSK9 mRNA in Huh7 cells; format: cell-based, human; details: Huh7, 24 h, highest Q3G concentration tested (0 to 10 μM)
# Procedure: as §1
# Total RNA was extracted using the Qiagen RNeasy extraction kit. It was reverse transcribed into cDNA using random hexameric primers and the Superscript II RNase H-Reverse Transcriptase. […]
# Standard curves were established using varying amounts of purified and quantified cDNA amplicons of each mRNA. […]
# [3] = test system: PCSK9; assay: Semi-quantitative immunoblotting for cellular PCSK9 in Huh7 cells; format: cell-based, human
# Procedure: as §1
# as §2, with “samples. […]” for “samples.”
# [4] = test system: PCSK9 mRNA; assay: qRT-PCR for PCSK9 mRNA in MIN6 β-cells; format: cell-based, mouse; design: increase in PCSK9 mRNA: dose or concentration left out as unconfirmed; details: MIN6, 24 h
# Procedure: (§3) Mouse insulinoma MIN6 cells were cultured in a 5% CO2-95% air atmosphere at 37° C. in DMEM medium containing 10% heat-inactivated fetal bovine serum, 1 mM Na-pyruvate, 2 mM L-glutamine, 25 mM D-glucose, and 28 μM β-mercaptoethanol. Q3G at a specific final concentration was supplemented to the culture medium and incubation was conducted for a selected length of time. Media were collected, spun at 600 g to sediment suspended cells, supplemented with 0.5 volumes of 3×RIPA-PIC (1×: 50 mM Tris-HCl, pH 8, 150 mM NaCl, 1% NP-40, 0.5% Na-deoxycholate and 0.1% SDS and PIC). Cells were lysed in 1×RIPA-PIC for immuno-blotting, or in RNA extraction buffer for qRT-PCR.
# For the mouse studies, the levels of specific mRNAs were quantified in a PCR-based fluorogenic assay using the Taqman technology (Holland et al., 1991). Briefly, total RNA was extracted using the RNeasy extraction kit and reverse-transcribed into cDNA using random hexameric primers and the Superscript II RNase H-Reverse Transcriptase. The cDNA was used as a template to produce PCR amplicons using FastStart TaqMan ProbeMaster-Rox master mix, primer pairs and the appropriate fluorescent probes) in the Stratagene Mx3005P thermocycler. Standard curves were established using varying amounts of pre-quantified amplicons of each transcript. The level of mRNA for the TATA-box binding protein (TBP) was used for normalization.
# MIN6 β-cells were incubated for 24 h in the presence of different concentrations of Q3G. Total RNA was extracted and analyzed by qRT-PCR for the levels of mRNA for PCSK9, LDLR, ABCA1 and ABCG1.
# [5] = test system: proPCSK9; assay: Immunoblotting for PCSK9/proPCSK9 in MIN6 β-cells; format: cell-based, mouse; details: MIN6, 24 h, 16 μM Q3G versus untreated
# Procedure: The corresponding photographs of the immunoblotting results are also shown. MIN6 cells were incubated for 24 h in the presence of 16 μM Q3G. Cell lysates were analyzed by semi-quantitative immunoblotting using different antibodies successively.
# as §3
# Cell lysates were fractionated by SDS-PAGE and electrophoretically transferred onto a polyvinylidene fluoride membrane. […] The signal was captured on X-ray film and immunoreactive bands analyzed by densitometry on a Syngene's ChemiGenius^2XE Bio Imaging System (Cambridge, Mass.) within the dynamic range of the instrument. […]
# [6] = dogs, meal supplement; cited from earlier work
# [7] = Huh7, 24 h, co-treatment 5 μM Q3G with simvastatin 0.2 and 1 μM
smiles,measurement,setting,value
"O=c1c(O[C@@H]2O[C@H](CO)[C@@H](O)[C@H](O)[C@H]2O)c(-c2ccc(O)c(O)c2)oc2cc(O)cc(O)c12 [Q3G, quercetin-3-O-β-D-glucoside]",lag before LDLR accumulation in the cells,"[1]; Huh7, 2 μM Q3G, time course",6 h
same,increase of LDLR protein content (maximum),"[1]; Huh7, 24 h, 10% LPDS, 0 to 10 μM Q3G, maximum at 4 μM",4 ×
same,level of cellular LDLR,[1]; [7],increased cellular LDLR to the level induced by the flavonol alone
same,effect of high concentrations on stimulation of LDLR expression,"[1]; Huh7, 24 h, high Q3G concentrations (>20 NM), concentration-dependent",attenuated; also recorded: attenuation
same,decrease of PCSK9 mRNA levels,[2],one-third
same,lag before PCSK9 accumulation in the cells,"[3]; Huh7, 2 μM Q3G, time course",3 h
same,amount of cellular PCSK9,[3]; [7],further increased
same,increase of PCSK9 protein in the cells,"[3]; Huh7, 24 h, highest Q3G concentration tested (0 to 10 μM)",1.9 ×
same,effect on PCSK9 mRNA levels,[4]; Q3G 8 mM and above,increased
same,effect on PCSK9 mRNA levels,[4]; Q3G up to 4 mM,does not affect
same,increase in PCSK9 mRNA,[4]; maximum Q3G concentration used,2.5 fold
same,intracellular content of proPCSK9,[5],higher
same,quercetin bioavailability versus quercetin aglycone and rutin,[6],significantly greater
